Source: patent US7378513B2, “Isolated proteins from a traditional Chinese medicine Yuzhu and use thereof” (priority 2005, dated 2008)
Converted amounts (≈) assume the structure as drawn. Read-outs that look alike come from different tables or passages of the source.

Tests used:
HSV-1 (15577) [1] = experiment: microbe, parasite or virus in culture; type: cell-based, Herpes Simplex Virus; details: Human alphaherpesvirus 1; plaque reduction assay, Vero cells; M2 value is the average of two
HSV-1 (15577) [2] = experiment: microbe, parasite or virus in culture; type: cell-based, Herpes Simplex Virus; details: Human alphaherpesvirus 1, CPE method
HSV-2 = experiment: Cytopathic effect (CPE) inhibition assay, HSV-2; type: cell-based, Herpes Simplex Virus; details: Human alphaherpesvirus 2; CPE method, Vero cells
RSV (long strain) [3] = experiment: microbe, parasite or virus in culture; type: cell-based; details: human respiratory syncytial virus; plaque reduction assay
RSV (long strain) [4] = experiment: microbe, parasite or virus in culture; type: cell-based, respiratory syncytial virus; details: CPE method; for IC50: human respiratory syncytial virus
rabbit erythrocytes = experiment: Hemagglutinating test, rabbit red blood cells; type: cell-based
Procedure: The assay was carried out in a U-shape microtiter plate as described previously (Ooi et al., 1998). […] Specific hemagglutinating activity was expressed as the number of hemagglutinating units per mg protein in Table 3. Rabbit, human (ABO groups), and chicken red blood cells were used for hemagglutinating test. Concanavalin A (ConA) was used as a positive control, and phosphate-buffered saline (PBS, 0.1M, pH7.4) as a negative control. A serial twofold dilution of the lectin solution (in PBS) in microtitre U-plates (50 μl) was mixed with 50 μl of a 2% suspension of red blood cells in PBS at room temperature. The results were read after about one hour when the blank (with red blood cells and buffer only) had fully sedimented.

Q: With Nc1nc2c(ncn2COCCO)c(=O)[nH]1 [Acyclovir] as the compound, how does the IC50 (HSV-1 (15577) [1]) read?
A: 0.15 µg/mL (≈ 0.666 µM)

Q: What about the IC50 (HSV-1 (15577) [2]; Vero cells, Table 4a Yuzhu (Dried Herbs)) of the same compound?
A: 0.25 µg/mL (≈ 1.11 µM)

Q: And the IC50 (HSV-1 (15577) [2]; Table 4b Yuzhu (Fresh Herbs))?
A: 0.25 µg/mL (≈ 1.11 µM)

Q: And the IC50 (HSV-2)?
A: 0.35 µg/mL (≈ 1.55 µM)

Q: NC(=O)c1ncn([C@@H]2O[C@H](CO)[C@@H](O)[C@H]2O)n1 [Ribavirin] was tested. Which IC50 (RSV (long strain) [3]) did it give?
A: 3.3 µg/mL (≈ 13.5 µM)

Q: And the “IC50 RSV (long strain)” value (RSV (long strain) [4]; Hep2 cells, Table 4a Yuzhu (Dried Herbs), listed as Ribvirin)?
A: (6.3) μg/ml

Q: And the IC50 (RSV (long strain) [4]; HEp-2, Hep2 cells, Table 4a Yuzhu (Dried Herbs), read-out: IC50 RSV (long strain))?
A: 6.3 µg/mL (≈ 25.8 µM)

Q: And the IC50 (RSV (long strain) [4]; Table 4b Yuzhu (Fresh Herbs), read-out: IC50 RSV)?
A: 6.3 µg/mL (≈ 25.8 µM)

Q: For Concanavalin A [ConA], which Specific hemagglutinating activity (rabbit erythrocytes) is on record?
A: 12,800 U/mg protein
